Source: ChEMBL document CHEMBL1144833, “Synthesis and evaluation of novel aromatic substrates and competitive inhibitors of GABA aminotransferase” (Bioorg Med Chem Lett, 2008)

Key:
[1] = molecular target: T1, 4-aminobutyrate aminotransferase, mitochondrial (Homo sapiens, UniProt P80404); assay: Activity at GABA-AT assessed as substrate activity relative to gamma amino butyric acid; parameters: concentration or dose not given beside the values
[2] = molecular target: T1, 4-aminobutyrate aminotransferase, mitochondrial; assay: Inhibition of GABA-AT

T1 sequence (P80404 whole entry): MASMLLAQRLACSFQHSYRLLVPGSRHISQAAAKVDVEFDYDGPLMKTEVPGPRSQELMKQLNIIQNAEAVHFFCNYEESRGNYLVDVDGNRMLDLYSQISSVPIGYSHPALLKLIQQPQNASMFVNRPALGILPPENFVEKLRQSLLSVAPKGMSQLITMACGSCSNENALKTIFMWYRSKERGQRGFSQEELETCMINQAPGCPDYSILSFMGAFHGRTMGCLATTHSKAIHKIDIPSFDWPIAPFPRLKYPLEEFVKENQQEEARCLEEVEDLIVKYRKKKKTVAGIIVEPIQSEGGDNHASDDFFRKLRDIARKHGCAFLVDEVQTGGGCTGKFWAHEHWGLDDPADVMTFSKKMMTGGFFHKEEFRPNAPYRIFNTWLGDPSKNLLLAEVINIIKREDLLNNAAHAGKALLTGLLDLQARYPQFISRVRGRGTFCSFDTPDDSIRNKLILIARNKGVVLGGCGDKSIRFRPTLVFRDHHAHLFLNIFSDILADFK

Row | Relative stimulatory activity [1] [%] | IC50 [2] [mM] | SMILES
1 | 0 | > 5 | Nc1cccc(CC(=O)O)c1
2 | 0.78 | > 5 | NCc1cccc(CC(=O)O)c1
3 | 0 | > 5 | Nc1cccc(C(=O)O)c1 [3-AMINOBENZOIC ACID]
4 | 3.42 | > 5 | NCc1cccc(C(=O)O)c1

Second part, the molecule before the results:

Row | SMILES | Relative stimulatory activity [1] [%] | IC50 [2] [mM]
5 | NCc1ccccc1CC(=O)O | 5.65 | > 5
6 | NCc1ccccc1C(=O)O | 0 | > 5
7 | Nc1ccccc1C(=O)O [ANTHRANILIC ACID] | 0 | > 5
